Experiments:
Z-138 cell line = assay: Z-138 Proliferation Assay (Cell Titer Glo); format: cell-based; settings: Homo sapiens, 120 h; Z-138 cells, 5 days incubation, ATP (Cell Titer Glo)
Description: Z-138 Proliferation Assay
Z-138 suspension cells were purchased from ATCC (American Type Culture Collection, Manassas, Va.). RPMI/Glutamax medium, penicillin-streptomycin, heat inactivated fetal bovine serum were purchased from Life Technologies, Grand Island, N.Y., USA. V-bottom polypropylene 384-well plates were purchased from Greiner Bio-One, Monroe, N.C., USA. Cell culture 384-well white opaque plates were purchased from Perkin Elmer, Waltham, Mass., USA. Cell-Titer Glo® was purchased from Promega Corporation, Madison, Wis., USA. SpectraMax M5 plate reader was purchased from Molecular Devices LLC, Sunnyvale, Calif., USA.
Z-138 suspension cells were maintained in growth medium (RPMI 1640 supplemented with 10% v/v heat inactivated fetal bovine serum and cultured at 37° C. under 5% CO2. Under assay conditions, cells were incubated in assay medium (RPMI 1640 supplemented with 10% v/v heat inactivated fetal bovine serum and 100 units/mL penicillin-streptomycin) at 37° C. under 5% CO2.
For the assessment of the effect of compounds on the proliferation of the Z-138 cell line, exponentially growing cells were plated in 384-well white opaque plates at a density of 10,000 cells/ml in a final volume of 50 μl of assay medium. A compound source plate was prepared by performing triplicate nine-point 3-fold serial dilutions in DMSO, beginning at 10 mM (final top concentration of compound in the assay was 20 μM and the DMSO was 0.2%). A 100 nL aliquot from the compound stock plate was added to its respective well in the cell plate. […] After addition of compounds, assay plates were incubated for 5 days at 37° C., 5% CO2, relative humidity >90%.
Cell viability was measured by quantitation of ATP present in the cell cultures, adding 35 μl of Cell Titer Glo® reagent to the cell plates. Luminescence was read in the SpectraMax M5 microplate reader. The concentration of compound inhibiting cell viability by 50% was determined using a 4-parametric fit of the normalized dose response curves.

PRMT5/MEP50 = target: T1, PRMT5/MEP50 (Homo sapiens, UniProt O14744); assay: PRMT5 Biochemical Assay (PRMT5/MEP50 enzyme assay on peptide substrate, 3H-SAM Flashplate); settings: PRMT5/MEP50 4 nM, 3H-SAM 75 nM, peptide 40 nM, 30 min preincubation at 25 degrees Celsius
T1 construct: Flag-PRMT5; made in house; host or cells: Spodoptera frugiperda (SF9) insect cells, baculovirus (pDEST8)
Description: S-adenosylmethionine (SAM), S-adenosylhomocysteine (SAH), bicine, KCl, Tween20, dimethylsulfoxide (DMSO), bovine skin gelatin (BSG), and Tris(2-carboxyethyl)phosphine hydrochloride solution (TCEP) were purchased from Sigma-Aldrich at the highest level of purity possible. ^3H-SAM was purchase from American Radiolabeled Chemicals with a specific activity of 80 Ci/mmol. 384-well streptavidin Flashplates were purchased from PerkinElmer.
Peptide representative of human histone H4 residues 1-15 was synthesized with a C-terminal linker-affinity tag motif and a C-terminal amide cap by 21st Century Biochemicals. The peptide was high high-performance liquid chromatography (HPLC) purified to greater than 95% purity and confirmed by liquid chromatography mass spectrometry (LC-MS). The sequence was Ac-[…][K-Biot]-amide (SEQ ID NO.:3).
Full-length human PRMT5 (NM_006109.3) transcript variant 1 clone was amplified from a fetal brain cDNA library, incorporating flanking 5′ sequence encoding a FLAG tag ([…]) (SEQ ID NO.:4) fused directly to Ala 2 of PRMT5. Full-length human MEP50 (NM_024102) clone was amplified from a human testis cDNA library incorporating a 5′ sequence encoding a 6-histidine tag (MHHHHHH) (SEQ ID NO.:5) fused directly to Arg 2 of MEP50. The amplified genes were sublconed into pENTR/D/TEV (Life Technologies) and subsequently transferred by Gateway™ attL×attR recombination to pDEST8 baculvirus expression vector (Life Technologies).
Recombinant baculovirus and Baculovirus-Infected Insect Cells (BIIC) were generated according to Bac-to-Bac kit instructions (Life Technologies) and Wasilko, 2006, respectively. Protein over-expression was accomplished by infecting exponentially growing Spodoptera frugiperda (SF9) cell culture at 1.2×10^6 cell/ml with a 5000 fold dilution of BIIC stock. Infections were carried out at 27° C. for 72 hours, harvested by centrifugation, and stored at −80° C. for purification.
Flag-PRMT5/6His-MeP50 was eluted with 300 mM Imidazole in the same buffer. The purity of recovered protein was 87%. Reference: Wasilko, D. J. and S. E. Lee: “TIPS: titerless infected-cells preservation and scale-up” Bioprocess J., 5 (2006), pp. 29-32.
General Procedure for PRMT5/MEP50 Enzyme Assays on Peptide Substrates.
The assays were all performed in a buffer consisting of 20 mM Bicine (pH=7.6), 1 mM TCEP, 0.005% BSG, and 0.002% Tween20, prepared on the day of use. Compounds in 100% DMSO (1 ul) were spotted into a polypropylene 384-well V-bottom plates (Greiner) using a Platemate Plus outfitted with a 384-channel head (Thermo Scientific). DMSO (1 ul) was added to Columns 11, 12, 23, 24, rows A-H for the maximum signal control and 1 ul of SAH, a known product and inhibitor of PRMT5/MEP50, was added to columns 11, 12, 23, 24, rows I-P for the minimum signal control. A cocktail (40 ul) containing the PRMT5/MEP50 enzyme and the peptide was added by Multidrop Combi (Thermo-Fisher). The compounds were allowed to incubate with PRMT5/MEP50 for 30 min at 25 degrees Celsius, then a cocktail (10 ul) containing ^3H-SAM was added to initiate the reaction (final volume=51 ul). The final concentrations of the components were as follows: PRMT5/MEP50 was 4 nM, ^3H-SAM was 75 nM, peptide was 40 nM, SAH in the minimum signal control wells was 100 uM, and the DMSO concentration was 1%. The assays were stopped by the addition of non-radioactive SAM (10 ul) to a final concentration of 600 uM, which dilutes the ^3H-SAM to a level where its incorporation into the peptide substrate is no longer detectable. 50 ul of the reaction in the 384-well polypropylene plate was then transferred to a 384-well Flashplate and the biotinylated peptides were allowed to bind to the streptavidin surface for at least 1 hour before being washed three times with 0.1% Tween20 in a Biotek ELx405 plate washer. […]

T1 sequence (O14744 with tags, fused parts or gaps): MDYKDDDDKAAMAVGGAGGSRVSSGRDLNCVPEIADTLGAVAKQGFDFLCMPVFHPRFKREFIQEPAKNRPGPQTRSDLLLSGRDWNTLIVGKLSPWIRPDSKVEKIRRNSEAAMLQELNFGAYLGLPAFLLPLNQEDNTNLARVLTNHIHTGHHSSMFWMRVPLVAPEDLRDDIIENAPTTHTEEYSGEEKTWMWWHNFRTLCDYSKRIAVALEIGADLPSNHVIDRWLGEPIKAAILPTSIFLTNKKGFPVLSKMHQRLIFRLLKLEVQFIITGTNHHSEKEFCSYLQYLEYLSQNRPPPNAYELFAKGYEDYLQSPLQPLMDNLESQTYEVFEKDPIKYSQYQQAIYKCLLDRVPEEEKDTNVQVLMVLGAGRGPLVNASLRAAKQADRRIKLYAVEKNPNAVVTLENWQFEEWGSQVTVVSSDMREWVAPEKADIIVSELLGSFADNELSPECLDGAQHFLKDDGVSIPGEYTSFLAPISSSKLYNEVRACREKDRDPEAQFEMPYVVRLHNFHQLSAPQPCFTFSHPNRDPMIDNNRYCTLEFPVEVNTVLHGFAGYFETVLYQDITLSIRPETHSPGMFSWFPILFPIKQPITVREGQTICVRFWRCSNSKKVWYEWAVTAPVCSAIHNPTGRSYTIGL
T1 sequence (Q9BQA1 with tags, fused parts or gaps partner limits assumed): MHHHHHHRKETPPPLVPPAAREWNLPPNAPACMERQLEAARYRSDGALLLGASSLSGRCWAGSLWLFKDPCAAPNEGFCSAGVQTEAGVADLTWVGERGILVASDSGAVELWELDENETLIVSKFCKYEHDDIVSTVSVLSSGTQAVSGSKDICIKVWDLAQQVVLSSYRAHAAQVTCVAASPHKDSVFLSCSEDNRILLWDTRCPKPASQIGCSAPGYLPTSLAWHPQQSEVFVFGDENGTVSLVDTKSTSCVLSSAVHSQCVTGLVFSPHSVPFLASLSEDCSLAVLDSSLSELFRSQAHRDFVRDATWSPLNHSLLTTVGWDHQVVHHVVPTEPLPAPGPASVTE

| IC50 (PRMT5/MEP50) | SMILES | EC50 (Z-138 cell line) |
| --- | --- | --- |
| > 10 µM | CC(=O)N1CCC(Nc2cc(C(=O)NC[C@H](O)CN3CCc4cn[nH]c4C3)ncn2)CC1 [Compound 3-51] | > 5 µM |
| < 0.1 µM | CC(=O)N1CC(Nc2cc(C(=O)NC[C@H](O)CN3CCc4sccc4C3)ncn2)C1 [Compound 1-2, (S)-6-((1-acetylazetidin-3-yl)amino)-N-(3-(6,7-dihydrothieno[3,2-c]pyridin-5(4H)-yl)-2-hydroxypropyl)pyrimidine-4-carboxamide] | 0.101 to 1 µM |
| > 10 µM | Nc1nc2c(s1)CN(C[C@@H](O)CNC(=O)c1cc(NC3COC3)ncn1)CC2 [Compound 1-23] | > 5 µM |
| > 10 µM | Cc1nc2c(o1)CCN(C[C@@H](O)CNC(=O)c1cc(NC3COC3)ncn1)C2 [Compound 4-1, (S)—N-(2-hydroxy-3-(2-methyl-6,7-dihydrooxazolo[4,5-c]pyridin-5(4H)-yl)propyl)-6-(oxetan-3-ylamino)pyrimidine-4-carboxamide] | > 5 µM |
| 1 to 10 µM | O=C(COc1cccc2cccnc12)NCC(O)CN1CCc2ccncc2C1 (centres unmarked) [Compound 2-8, N-[2-hydroxy-3-(1,2,3,4-tetrahydro-2,7-naphthyridin-2-yl)propyl]-2-(quinolin-8-yloxy)acetamide] | > 5 µM |
| 0.101 to 1 µM | CC(=O)N1CCC(Nc2cc(C(=O)NC[C@H](O)CN3CCc4sc(N)nc4C3)ccn2)CC1 [Compound 1-34] | > 5 µM |
| 1 to 10 µM | CC(=O)N1CCC(Nc2cc(C(=O)NC[C@H](O)CN3CCc4nc(C)sc4C3)ncn2)CC1 [Compound 1-7, (S)-6-((1-acetylpiperidin-4-yl)amino)-N-(2-hydroxy-3-(2-methyl-6,7-dihydrothiazolo[5,4-c]pyridin-5(4H)-yl)propyl)pyrimidine-4-carboxamide] | > 5 µM |
| > 10 µM | CC(=O)N1CC(Nc2cc(C(=O)NC[C@H](O)CN3CCc4oc(C)nc4C3)ncn2)C1 [Compound 4-2, (S)-6-((1-acetylazetidin-3-yl)amino)-N-(2-hydroxy-3-(2-methyl-6,7-dihydrooxazolo[4,5-c]pyridin-5(4H)-yl)propyl)pyrimidine-4-carboxamide] | > 5 µM |
| 0.101 to 1 µM | CC(=O)N1CCC(Nc2cc(C(=O)NC[C@H](O)CN3CCc4cccnc4C3)ccn2)CC1 [Compound 2-21, (S)-2-((1-acetylpiperidin-4-yl)amino)-N-(3-(5,6-dihydro-1,7-naphthyridin-7(8H)-yl)-2-hydroxypropyl)isonicotinamide] | > 5 µM |
| 0.101 to 1 µM | CC(=O)N1CCC(Nc2cc(C(=O)NC[C@H](O)CN3CCc4cccnc4C3)ncn2)CC1 [Compound 2-11, (S)-6-((1-acetylpiperidin-4-yl)amino)-N-(3-(5,6-dihydro-1,7-naphthyridin-7(8H)-yl)-2-hydroxypropyl)pyrimidine-4-carboxamide] | > 5 µM |
| > 10 µM | CC(=O)N1CCC(Nc2cc(C(=O)NC[C@H](O)CN3CCc4ncn(C)c4C3)ccn2)CC1 [Compound 3-24, (S)-2-((1-acetylpiperidin-4-yl)amino)-N-(2-hydroxy-3-(3-methyl-6,7-dihydro-3H-imidazo[4,5-c]pyridin-5(4H)-yl)propyl)isonicotinamide] | > 5 µM |
| 1 to 10 µM | CC(=O)N1CCC(Nc2cc(C(=O)NC[C@H](O)CN3CCc4ncsc4C3)ncn2)CC1 [Compound 1-18, (S)-6-((1-acetylpiperidin-4-yl)amino)-N-(3-(6,7-dihydrothiazolo[5,4-c]pyridin-5(4H)-yl)-2-hydroxypropyl)pyrimidine-4-carboxamide] | > 5 µM |
| 1 to 10 µM | CC(=O)N1CC(Nc2cc(C(=O)NC[C@H](O)CN3CCc4sc(N)nc4C3)ncn2)C1 [Compound 1-28] | > 5 µM |
| 1 to 10 µM | CC(=O)N1CCC(Nc2cc(C(=O)NC[C@H](O)CN3CCc4c(cnn4C)C3)ccn2)CC1 [Compound 3-52] | > 5 µM |
| 1 to 10 µM | CC(=O)N1CCC(Nc2cc(C(=O)NC[C@H](O)CN3CCc4nn(C)cc4C3)ccn2)CC1 [Compound 3-53] | > 5 µM |
| 0.101 to 1 µM | CC(=O)N1CCC(Nc2cc(C(=O)NC[C@H](O)CN3CCc4cnccc4C3)ncn2)CC1 [Compound 2-17, (S)-6-((1-acetylpiperidin-4-yl)amino)-N-(3-(3,4-dihydro-2,6-naphthyridin-2(1H)-yl)-2-hydroxypropyl)pyrimidine-4-carboxamide] | > 5 µM |
| 0.101 to 1 µM | O=C(NC[C@H](O)CN1CCc2ncccc2C1)c1cc(NC2COC2)ncn1 [Compound 2-12, (S)—N-(3-(7,8-dihydro-1,6-naphthyridin-6(5H)-yl)-2-hydroxypropyl)-6-(oxetan-3-ylamino)pyrimidine-4-carboxamide] | 1 to 10 µM |
| 0.101 to 1 µM | CC(=O)N1CC(Nc2cc(C(=O)NC[C@H](O)CN3CCc4cccnc4C3)ncn2)C1 [Compound 2-13] | 1 to 10 µM |
| > 10 µM | O=C(NC[C@H](O)CN1CCc2[nH]cnc2C1)c1cc(NC2COC2)ncn1 [Compound 3-38, (S)—N-(3-(6,7-dihydro-1H-imidazo[4,5-c]pyridin-5(4H)-yl)-2-hydroxypropyl)-6-(oxetan-3-ylamino)pyrimidine-4-carboxamide] | > 5 µM |
| > 10 µM | CC(=O)N1CCC(Nc2cc(C(=O)NC[C@H](O)CN3CCc4cn[nH]c4C3)ccn2)CC1 [Compound 3-50] | > 5 µM |
| > 10 µM | CC(=O)N1CC(Nc2cc(C(=O)NC[C@H](O)CN3CCc4[nH]c(C)nc4C3)ncn2)C1 [Compound 3-47] | > 5 µM |
| 1 to 10 µM | CC(=O)N1CC(Nc2cc(C(=O)NC[C@H](O)CN3CCc4ccncc4C3)ncn2)C1 [Compound 2-22] | > 5 µM |
